{"source": "patent US12539299B2", "about": "“Oral formulation of a therapeutic compound” (ARDELYX, INC., priority 2020, dated 2026)", "key": {"[1]": {"assay": "Dissolution of capsule and tablet prototypes, USP apparatus II (paddle), 75 rpm, 900 mL media, 37° C.", "assay_type": "physicochemical", "conditions": "comparison between forms, prototypes or pH", "description": "FIG. 1: Dissolution of 15 mg tenapanor HCl tablets and tenapanor free base tablets in FeSSIF media pH 5.0. Dissolution method: USP apparatus II (paddle), 75 rpm, 900 mL of media at 37° C. FIG. 2: Dissolution of capsule I, neat tenapanor HCl powder in HPMC capsules (Vcaps® from Capsugel®) in FaSSIF media pH 6.5, FeSSIF media pH 5 and in 0.1N HCl. Dissolution method: USP apparatus II (paddle), 75 rpm, 900 mL of media at 37° C. […] Below are the composition of some of the capsule and tablet formulations as well as maximum dissolution observed in 0.1N HCl, pH 5 FeSSIF media and pH 6 FaSSIF media. Tablets from the same prototype designation differed by tenapanor loading and salt/free-base form but had the same disintegrant, glidant and lubricant excipients in the same % w/w but varied in the % w/w of tenapanor and filler making up the remainder of tablet."}, "[2]": {"tested_on": "Irritable Bowel Syndrome with Constipation (IBS-C) patients", "conditions": "bis-HCl salt form, clinical; cited from earlier work"}, "[3]": {"tested_on": "animal model of IBS-like colonic hypersensitivity", "conditions": "cited from earlier work"}, "[4]": {"tested_on": "patients with hyperphosphatemia", "conditions": "clinical; cited from earlier work"}}, "data": [{"compound": "CN1Cc2c(Cl)cc(Cl)cc2[C@H](c2cccc(S(=O)(=O)NCCOCCOCCNC(=O)NCCCCNC(=O)NCCOCCOCCNS(=O)(=O)c3cccc([C@@H]4CN(C)Cc5c(Cl)cc(Cl)cc54)c3)c2)C1", "note": "[tenapanor, 1-[2-[2-[2-[[3-[(4S)-6,8-dichloro-2-methyl-3,4-dihydro-1H-isoquinolin-4-yl]phenyl]sulfonylamino]ethoxy]ethoxy]ethyl]-3-[4-[2-[2-[2-[[3-[(4S)-6,8-dichloro-2-methyl-3,4-dihydro-1H-isoquinolin-4-yl]phenyl]sulfonylamino]ethoxy]ethoxy]ethylcarbamoylamino]butyl]urea]", "values": [{"measurement": "dissolution, comparison in words", "setting": "[1]", "result": "better dissolution at low pH"}, {"measurement": "abdominal pain", "setting": "[2]", "result": "reduce abdominal pain"}, {"measurement": "colonic sensory neuronal excitability and TRPV1 currents", "setting": "[3]", "result": "normalized colonic sensory neuronal excitability and Transient Receptor Potential Vanilloid 1 (TRPV1) currents"}, {"measurement": "visceral hyperalgesia", "setting": "[3]", "result": "reduced visceral hyperalgesia"}, {"measurement": "serum phosphate", "setting": "[4]", "result": "lower serum phosphate"}]}]}
